In patent publication US20100160321A1, “IMIDAZOLINONE AND HYDANTOINE DERIVATIVES AS NOVEL INHIBITORS OF HISTONE DEACETYLASE” (priority 2005, published 2010):

Key:
[1] = biological target: histone deacetylase (HeLa nuclear extracts); assay: In vitro assay for inhibition of histone deacetylase (HDAC Fluorescent Activity Assay, Fluor de Lys); assay type: biochemical; conditions: HeLa nuclear extracts 60 μg/ml, 75 μM Fluor de Lys substrate, example C.1
From the text: The in vitro assay for inhibition of histone deacetylase (see example C.1) measures the inhibition of HDAC enzymatic activity obtained with the compounds of formula (I).
The HDAC Fluorescent Activity Assay/Drug Discovery Kit of Biomol (cat.No: AK-500-0001) was used. The HDAC Fluorescent Activity Assay is based on the Fluor de Lys (Fluorogenic Histone deAcetylase Lysyl) substrate and developer combination. The Fluor de Lys substrate, comprises an acetylated lysine side chain. Deacetylation of the substrate sensitizes the substrate so that, in the second step, treatment with the Fluor de Lys developer produces a fluorophore.
HeLa nuclear extracts (supplier: Biomol) were incubated at 60 μg/ml with 75 μM of substrate. The Fluor de Lys substrate was added in a buffer containing 25 mM Tris, 137 mM NaCl, 2.7 mM KCl and 1 mM MgCl2.6H2O at pH 7.4. After 30 min, 1 volume of the developer was added. The fluorophore was excited with 355 nm light and the emitted light (450 nm) was be detected on a fluorometric plate reader.
For each experiment, controls (containing HeLa nuclear extract and buffer), a blank incubation (containing buffer but no HeLa nuclear extract) and samples (containing compound dissolved in DMSO and further diluted in buffer and HeLa nuclear extract) were run in parallel. In first instance, compounds were tested at a concentration of 10^−5M. […] All sample were tested 4 times. In each test the blank value was subtracted from both the control and the sample values. The control sample represented 100% of substrate deactylation. For each sample the fluorescence was expressed as a percentage of the mean value of the controls. […] Herein the effects of test compounds are expressed as pIC50 (the negative log value of the IC50-value) (see Table F-3).

[2] = tested on: human A2780 ovarian carcinoma cells; assay: Antiproliferative activity on A2780 cells (MTT); assay type: cell-based; conditions: 96 h, four days of incubation, example C.2, read-out: Cellular activity pIC50 (converted)
Experimental: All compounds tested were dissolved in DMSO and further dilutions were made in culture medium. Final DMSO concentrations never exceeded 0.1% (v/v) in cell proliferation assays. Controls contained A2780 cells and DMSO without compound and blanks contained DMSO but no cells. MTT was dissolved at 5 mg/ml in PBS.
Cells were routinely kept as monolayer cultures at 37° C. in a humidified 5% CO2 atmosphere. Cells were passaged once a week using a trypsin/EDTA solution at a split ratio of 1:40. All media and supplements were obtained from Life Technologies. Cells were free of mycoplasma contamination as determined using the Gen-Probe Mycoplasma Tissue Culture kit (supplier: BioMerieux).
Cells were seeded in NUNC™ 96-well culture plates (Supplier: Life Technologies) and allowed to adhere to the plastic overnight. Densities used for plating were 1500 cells per well in a total volume of 200 μl medium. After cell adhesion to the plates, medium was changed and drugs and/or solvents were added to a final volume of 200 μl. Following four days of incubation, medium was replaced by 200 μl fresh medium and cell density and viability was assessed using an MTT-based assay. To each well, 25 μl MTT solution was added and the cells were further incubated for 2 hours at 37° C. The medium was then carefully aspirated and the blue MTT-formazan product was solubilized by addition of 25 μl glycine buffer followed by 100 μl of DMSO. […] Within an experiment, the results for each experimental condition are the mean of 3 replicate wells. […] For each experiment, controls (containing no drug) and a blank incubation (containing no cells or drugs) were run in parallel. The blank value was subtracted from all control and sample values. For each sample, the mean value for cell growth (in absorbance units) was expressed as a percentage of the mean value for cell growth of the control. […] Herein the effects of test compounds are expressed as pIC50 (the negative log value of the IC50-value)(see Table F-3).

| Compound | Enzyme activity pIC50 [1] | IC50 [2] [nM] | melting point [°C] |
| --- | --- | --- | --- |
| O=C(NO)c1cnc(N2CCC(CN3CCN(c4cccc5ccccc45)C3=O)CC2)nc1 [Compound 1] | 7.1 | 1000 | – |
| CC1C(=O)N(c2ccc(C#N)cc2)C(=O)N1CC1CCN(c2ncc(C(=O)NO)cn2)CC1 (centres unmarked) [Compound 36] | 7.0 | 1580 | 135 |
| O=C(NO)c1cnc(N2CCC(CN3CCN(c4ccc(Oc5ccccc5)cc4)C3=O)CC2)nc1 [Compound 10] | 7.2 | 2510 | – |
| O=C(NO)c1cnc(N2CCC(CN3CCN(c4ccc(-c5ccccc5)cc4)C3=O)CC2)cn1 [Compound 11] | 7.3 | 631 | – |
| CC1C(=O)N(c2ccc(-c3ccccc3)cc2)C(=O)N1CC1CCN(c2ncc(C(=O)NO)cn2)CC1 (centres unmarked) [Compound 6] | 7.2 | 501 | 169 |
| Cc1cccc(-n2ccn(CC3CN(c4ncc(C(=O)NO)cn4)CCO3)c2=O)c1 (centres unmarked) [Compound 14] | 6.8 | 6310 | – |
| O=C(NO)c1cnc(N2CCC(Cn3ccn(-c4ccc(Oc5ccccc5)cc4)c3=O)CC2)nc1 [Compound 2] | 7.5 | 126 | – |
| O=C(NO)c1cnc(N2CCOC(Cn3ccn(-c4ccccc4)c3=O)C2)nc1 (centres unmarked) [Compound 12] | 7.5 | 631 | – |
| O=C(NO)c1cnc(N2CCC(Cn3ccn(-c4ccc(-c5ccccc5)cc4)c3=O)CC2)nc1 [Compound 3] | 7.8 | 79.4 | – |
| COc1ccc(-n2ccn(CC3CN(c4ncc(C(=O)NO)cn4)CCO3)c2=O)cc1OC (centres unmarked) [Compound 13] | 7.3 | 794 | – |
| O=C(NO)c1cnc(N2CCOC(Cn3ccn(-c4cccc(C(F)(F)F)c4)c3=O)C2)nc1 (centres unmarked) [Compound 15] | 7.3 | 1260 | – |
| O=C(NO)c1cnc(N2CCC(Cn3ccn(-c4ccc(F)cc4)c3=O)CC2)nc1 [Compound 4] | 7.6 | 631 | – |
| N#Cc1ccc(N2C(=O)C(c3ccccc3)N(CC3CCN(c4ncc(C(=O)NO)cn4)CC3)C2=O)cc1 (centres unmarked) [Compound 5] | 7.1 | 631 | 187 |

Now from value to compound, other results behind:

| Enzyme activity pIC50 [1] | IC50 [2] [nM] | Compound | melting point [°C] |
| --- | --- | --- | --- |
| 7.2 | 1260 | COc1ccc(-n2ccn(CC3CN(c4ncc(C(=O)NO)cn4)CCO3)c2=O)cc1 (centres unmarked) [Compound 18] | – |
| 7.2 | 1260 | O=C(NO)c1cnc(N2CCC(Cn3ccn(-c4cccc(C(F)(F)F)c4)c3=O)CC2)nc1 [Compound 23] | – |
| 6.6 | 1000 | O=C(NO)c1cnc(N2CCC(Cn3ccn(-c4ccccc4)c3=O)CC2)nc1 [Compound 32] | – |
| 7.3 | 501 | O=C(NO)c1cnc(N2CCOC(Cn3ccn(-c4ccc(F)cc4)c3=O)C2)nc1 (centres unmarked) [Compound 20] | – |
| 7.7 | 631 | COc1cccc(-n2ccn(CC3CCN(c4ncc(C(=O)NO)cn4)CC3)c2=O)c1 [Compound 29] | – |
| 7.4 | 631 | O=C(NO)c1cnc(N2CCC(Cn3ccn(-c4ccc5c(c4)OCCOCCOCCOCCO5)c3=O)CC2)nc1 [Compound 24] | – |
| 7.2 | 5010 | Cc1ccc(-n2ccn(CC3CN(c4ncc(C(=O)NO)cn4)CCO3)c2=O)cc1 (centres unmarked) [Compound 22] | – |
| 7.4 | 631 | COc1cc(-n2ccn(CC3CCN(c4ncc(C(=O)NO)cn4)CC3)c2=O)cc(OC)c1OC [Compound 25] | – |
| 7.9 | 501 | Cc1[nH]c2ccccc2c1CCn1ccn(CC2CCN(c3ncc(C(=O)NO)cn3)CC2)c1=O [Compound 35] | 246 |
| 7.4 | 501 | O=C(NO)c1cnc(N2CCOC(Cn3ccn(-c4cccc(F)c4)c3=O)C2)nc1 (centres unmarked) [Compound 21] | – |
| 7.2 | 1260 | COc1cc(-n2ccn(CC3CN(c4ncc(C(=O)NO)cn4)CCO3)c2=O)cc(OC)c1OC (centres unmarked) [Compound 16] | – |
| 7.4 | 501 | COc1cc(OC)cc(-n2ccn(CC3CCN(c4ncc(C(=O)NO)cn4)CC3)c2=O)c1 [Compound 26] | – |
| 7.5 | 631 | COc1ccc(-n2ccn(CC3CCN(c4ncc(C(=O)NO)cn4)CC3)c2=O)cc1OC [Compound 27] | – |
| 7.6 | 631 | COc1ccc(-n2ccn(CC3CCN(c4ncc(C(=O)NO)cn4)CC3)c2=O)cc1 [Compound 28] | – |
| 7.7 | 631 | Cc1ccc(-n2ccn(CC3CCN(c4ncc(C(=O)NO)cn4)CC3)c2=O)cc1 [Compound 31] | – |
| 7.5 | 631 | O=C(NO)c1cnc(N2CCC(Cn3ccn(-c4cccc(F)c4)c3=O)CC2)nc1 [Compound 30] | – |
